Here are results for eight compounds from US10781208B2, “5,6-dihydro-11H-indolo[2,3-B]quinolin-11-ones as alk inhibitors” (THE REGENTS OF THE UNIVERSITY OF MICHIGAN, priority 2016, dated 2020).

One assay concerns Kappas-299 (NPM-ALK). Description: Cell growth inhibition assay (WST-8), Kappas-299. Format: cell-based. To be noted: read-out: Kappas-299 (nM) (NPM-ALK), 50% of cell growth inhibition (IC50), Kappas-299 cells, WST-8, versus DMSO control. As for the experimental part: (§1) All cell lines were cultured as recommended. For cell growth inhibition assay, cells were treated with different concentrations of the tested compounds, diluted from stock to culture media containing a 0.2% DMSO as the final concentration. Cell viability was determined using the WST-8 cell proliferation assay kit (Dojindo Molecular Technologies) according to manufacture's instructions. Three independent experiments in triplicates were performed.
(Tetrazolium dyes change colour on reduction, which living cells bring about.)

The target in another assay is T1, wild-type human ALK (Homo sapiens, UniProt Q9UM73).
T1 construct: The cytoplasmic domain (amino acid 1058-1620) of wild-type human ALK protein; GST (N); purchased Carna Biosciences, Inc (Japan)
Description: ALK kinase activity, Lance TR-FRET assay (wild-type). Format: biochemical. To be noted: Table 2, ALK enzyme; read-out: Inhibitory activity (nM) ALK. Here is the method:
Mutated ALK proteins were expressed in SF9 insect cells with N-terminal tags cleaved after purification. Kinase activities of all enzymes were assessed using a Lance TR-FRET assay kit from Perkin Elmer Life Sciences (Waltham, Mass.). 2.5 μL of compound solution and 5 μL of protein solution were added into a black low volume 384 well microtiter plate which was incubated for 30 minutes with gentle shaking at room temperature, followed by adding 2.5 μL of fluorescently labeled peptide substrate and ATP mixture solution. The kinase reaction was performed in 50 mM HEPES (pH 7.5) with 1 mM EGTA, 1 mM MgCl2, and 2 mM DTT, 0.01% Tween-20 added right before the assay. […] The final mixture was incubated in the dark for 1 hour before the plate was read on a Tecan Infinite M-1000 multi-mode plate reader (Tecan, Durham N.C.) with an excitation wavelength of 320 nm.
In general terms: In TR-FRET formats the signal depends on donor and acceptor labels being close together.

Another assay concerns KARPAS 299 xenograft. Briefly: KARPAS 299 xenograft model in mice, in vivo antitumor efficacy. To be noted: SCID mice, given orally, once daily for 3 weeks, FIG. 1. As for the experimental part:
Tumor cells for xenografts were washed twice in PBS, and re-suspended in an ice cold mixture of 1:1 PBS and Matrigel (BD Biosciences, Invitrogen Corp.) for a final Matrigel protein concentration of 5 mg/ml. Cells at 5×10^6 cells in 0.1 ml were injected subcutaneously (s.c.) into the flank region of each mouse.
The size of tumors growing in the mice was measured in two dimensions using calipers. Tumor volume (mm^3)=(A×B^2)/2 where A and B are the tumor length and width (in mm), respectively. During treatment, tumor volume and body weight were measured three times a week. After the treatment was stopped, tumor volume and body weight was measured at least once a week.
Tumors were not allowed to exceed 10% of the animal's total body weight. If an animal had two or more tumors the total weight of all tumors were not allowed to exceed 10% of the animal's total body weight. At the end of the experimental period or when tumor size approached 10% of the total body weight, the animal was euthanized.
Mice with tumors within acceptable size range were randomized into treatment groups of 7 mice. Drug was given orally, once daily for 3 weeks. The Control group received vehicle alone.

A further assay relates to H3122 (EML4-ALK). Briefly: Cell growth inhibition assay (WST-8), H3122. Particulars: Homo sapiens, NCI-H3122, read-out: H3122 (nM) (EML4-ALK), 50% of cell growth inhibition (IC50); H3122 cells, WST-8, versus DMSO control. Format: cell-based. As for the experimental part: as §1

T1 sequence (Q9UM73 1058-1620): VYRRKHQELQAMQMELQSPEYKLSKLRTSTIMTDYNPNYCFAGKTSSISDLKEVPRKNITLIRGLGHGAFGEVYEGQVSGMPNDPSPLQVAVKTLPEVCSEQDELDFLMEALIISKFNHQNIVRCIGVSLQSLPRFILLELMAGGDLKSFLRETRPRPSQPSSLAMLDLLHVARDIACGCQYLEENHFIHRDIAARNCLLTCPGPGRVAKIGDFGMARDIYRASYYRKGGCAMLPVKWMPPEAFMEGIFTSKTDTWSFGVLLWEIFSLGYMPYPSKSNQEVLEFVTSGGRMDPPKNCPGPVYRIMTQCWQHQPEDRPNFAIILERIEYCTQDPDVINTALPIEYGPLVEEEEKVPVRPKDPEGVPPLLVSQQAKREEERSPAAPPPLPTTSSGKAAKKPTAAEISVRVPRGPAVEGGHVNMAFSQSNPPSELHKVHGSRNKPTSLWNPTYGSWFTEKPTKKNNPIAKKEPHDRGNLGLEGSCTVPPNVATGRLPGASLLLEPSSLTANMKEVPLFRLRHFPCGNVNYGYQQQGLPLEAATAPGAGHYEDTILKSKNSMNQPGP

`COc1cc2c(=O)c3c4ccc(C#N)cc4[nH]c3n(C(C)C)c2c(F)c1C1=CC(C)(C)N(C)C(C)(C)C1` [Cpd. No. 12, 4-fluoro-5-isopropyl-2-methoxy-11-oxo-3-(1,2,2,6,6-pentamethyl-1,2,3,6-tetrahydropyridin-4-yl)-6,11-dihydro-5H-indolo[2,3-b]quinoline-8-carbonitrile]: the IC50 in the assay with Kappas-299 (NPM-ALK) is 9.7 nM; on wild-type human ALK, 0.24 nM. Also, the “tumor growth in the KARPAS 299 xenograft model” value (from here on “tumor growth”) with KARPAS 299 xenograft is on record as “inhibit tumor growth”.

With `COc1cc2c(=O)c3c4ccc(C#N)cc4[nH]c3n(C(C)C)c2c(F)c1C1=C[C@@H](C)N[C@@H](C)C1` [Cpd. No. 18, 3-((2S,6R)-2,6-dimethyl-1,2,3,6-tetrahydropyridin-4-yl)-4-fluoro-5-isopropyl-2-methoxy-11-oxo-6,11-dihydro-5H-indolo[2,3-b]quinoline-8-carbonitrile], the results for the IC50 in the assay with Kappas-299 (NPM-ALK), with H3122 (EML4-ALK) and on wild-type human ALK were 16 nM, 18 nM and 0.5 nM, respectively.

Regarding `COc1cc2c(=O)c3c4ccc(C#N)cc4[nH]c3n(C(C)C)c2c(F)c1C1=CCN(C2CCOCC2)CC1` [Cpd. No. 20, 4-fluoro-5-isopropyl-2-methoxy-11-oxo-3-(1-(tetrahydro-2H-pyran-4-yl)-1,2,3,6-tetrahydropyridin-4-yl)-6,11-dihydro-5H-indolo[2,3-b]quinoline-8-carbonitrile], the IC50 with Kappas-299 (NPM-ALK) was found to be 38 nM; in the assay on H3122 (EML4-ALK), 30 nM; on wild-type human ALK, 1.4 nM. The “tumor growth” value in the assay with KARPAS 299 xenograft was “inhibit tumor growth”.

As for `CCN1[C@H](C)CN(c2c(OC)cc3c(=O)c4c5ccc(C#N)cc5[nH]c4n(C(C)C)c3c2F)C[C@@H]1C` [Cpd. No. 9, 3-((3R,5S)-4-ethyl-3,5-dimethylpiperazin-1-yl)-4-fluoro-5-isopropyl-2-methoxy-11-oxo-6,11-dihydro-5H-indolo[2,3-b]quinoline-8-carbonitrile], the IC50 in the assay with Kappas-299 (NPM-ALK) was found to be 85 nM; in the assay with H3122 (EML4-ALK) it was 27 nM.

Turning to `COc1cc2c(=O)c3c4ccc(C#N)cc4[nH]c3n(C(C)C)c2c(F)c1C1CC2CCC(C1)N2C` (stereo not shown) [Cpd. No. 10, 4-fluoro-5-isopropyl-2-methoxy-3-(8-methyl-8-azabicyclo[3.2.1]octan-3-yl)-11-oxo-6,11-dihydro-5H-indolo[2,3-b]quinoline-8-carbonitrile], the IC50 in the assay with Kappas-299 (NPM-ALK) came to 69 nM; at wild-type human ALK it was 0.37 nM.

With `COc1cc2c(=O)c3c4ccc(C#N)cc4[nH]c3n(C(C)C)c2c(F)c1C1=CCNCC1` [Cpd. No. 16, 4-fluoro-5-isopropyl-2-methoxy-11-oxo-3-(1,2,3,6-tetrahydropyridin-4-yl)-6,11-dihydro-5H-indolo[2,3-b]quinoline-8-carbonitrile], the IC50 in the assay on Kappas-299 (NPM-ALK) was 167 nM; at wild-type human ALK, 0.85 nM.

As to `COc1cc2c(=O)c3c4ccc(C#N)cc4[nH]c3n(C(C)C)c2c(F)c1C1=C[C@@H](C)N(C)[C@@H](C)C1` [Cpd. No. 19, 4-fluoro-5-isopropyl-2-methoxy-11-oxo-3-((2S,6R)-1,2,6-trimethyl-1,2,3,6-tetrahydropyridin-4-yl)-6,11-dihydro-5H-indolo[2,3-b]quinoline-8-carbonitrile], the IC50 with Kappas-299 (NPM-ALK) was determined as 16 nM; with H3122 (EML4-ALK), 20 nM; at wild-type human ALK, 0.36 nM. Also, the “tumor growth” value in the assay with KARPAS 299 xenograft was “inhibit tumor growth”.

Turning to `COc1cc2c(=O)c3c4ccc(C#N)cc4[nH]c3n(C(C)C)c2c(F)c1C1=CCN(C)CC1` [Cpd. No. 17, 4-fluoro-5-isopropyl-2-methoxy-3-(1-methyl-1,2,3,6-tetrahydropyridin-4-yl)-11-oxo-6,11-dihydro-5H-indolo[2,3-b]quinoline-8-carbonitrile], the IC50 in the assay with Kappas-299 (NPM-ALK) came out at 60 nM; at wild-type human ALK, 0.75 nM.
